According to paper PMC9455918, “Quinolizidines as Novel SARS-CoV-2 Entry Inhibitors” (International Journal of Molecular Sciences, 2022):
Read-outs that look alike come from different tables or passages of the source.

Experiments:
HIV-1NL4-3-nanoluc-sec [1] = conditions: previously described; ref [19],[20],[21],[22]; cited from earlier work
in vitro = type: cell-based; conditions: human; concentration that reduced viability of 293T-ACE2 cells by 50%; 3 days
Method: The CellTiter-Glo® Luminescent Cell Viability Assay (Promega, Cat. # G7570 ) was used to determine the cytotoxicity of the aloperine derivatives. 293T-ACE2 cells were cultured in the presence of various concentrations of the compounds for 3 days. The cytotoxicity of the compounds was determined by following the protocol provided by the manufacturer. The 50% cytotoxic concentration (CC50) was defined as the concentration that caused a 50% reduction in cell viability.

cathepsin B = target: T1, cathepsin B (Homo sapiens, UniProt P07858); test: Cathepsin B inhibitor assay kit (BPS bioscience); type: biochemical; conditions: for Inhibitory activity against cathepsin B: tested at 20 µM, duplicated experiment
T1 construct: purchased BPS bioscience 79590

cathepsin L = target: T2, cathepsin L (Homo sapiens, UniProt P07711); test: Cathepsin L inhibitor assay kit (BPS bioscience); type: biochemical; conditions: tested at 20 µM, duplicated experiment
T2 construct: purchased BPS bioscience
T2 sequence (P07711 114-333): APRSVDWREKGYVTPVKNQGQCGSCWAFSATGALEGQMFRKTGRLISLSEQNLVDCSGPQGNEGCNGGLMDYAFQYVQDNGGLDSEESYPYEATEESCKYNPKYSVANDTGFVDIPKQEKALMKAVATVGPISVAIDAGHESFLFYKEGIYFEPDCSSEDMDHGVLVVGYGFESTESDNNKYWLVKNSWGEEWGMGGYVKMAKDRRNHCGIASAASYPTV

[2] = system: PA/Puerto Rico/8/1934 Influenza A Virus (PR8); conditions: cited from earlier work
[3] = system: D614G spike-pseudotyped virus in 293T-ACE2 cells; type: cell-based; conditions: 5 µM, 2 h infection with D614G spike-pseudotyped virus
[4] = system: Omicron BA.4/BA.5 spike-pseudotyped virus; test: microbe, parasite or virus in culture; type: cell-based; conditions: 293T-ACE2 cells
[5] = system: Omicron BA.2 spike-pseudotyped virus; test: microbe, parasite or virus in culture; type: cell-based; conditions: 293T-ACE2 cells
[6] = system: murine leukemia virus envelope (MLV-env) pseudotyped virus; test: microbe, parasite or virus in culture; type: cell-based; conditions: spike protein replaced with MLV-env, marked ** in Table 1
[7] = system: Delta spike-pseudotyped virus; test: microbe, parasite or virus in culture; type: cell-based; conditions: 293T-ACE2 cells
[8] = system: PA/Puerto Rico/8/1934 Influenza A Virus (PR8); test: microbe, parasite or virus in culture; type: cell-based; conditions: new compound 9, no reference given
HIV-1NL4-3-nanoluc-sec [9] = type: cell-based; conditions: new compound 9, no reference given; Inac = CC50/IC50 ratio < 5
[10] = Severe acute respiratory syndrome coronavirus 2

Compound | IC50 (HIV-1NL4-3-nanoluc-sec [1]) | CC50 (in vitro) | IC50 [2] | other results
C1=C2CCCN[C@H]2[C@@H]2C[C@H]1[C@H]1CCCCN1C2 [Aloperine, aloperine, reference compound] | 1.75 µM | > 20 µM | 14.5 µM | Inhibitory activity against cathepsin B (cathepsin B): inactive; Inhibitory activity against cathepsin L (cathepsin L): inactive
CCN(CC)CCCC(C)Nc1ccnc2cc(Cl)ccc12 (centres unmarked) [Chloroquine diphosphate, reference compound] |  |  |  | Spike protein (virus) puncta in 293T-ACE2 cells under confocal microscope [3]: no accumulation of viral puncta
O=C(NCCCCCCN1CCCC2CC3CC(CN4CCCCC34)C21)c1c(F)cc(Br)cc1F (centres unmarked) [Compound 1] | > 20 µM | > 20 µM | 0.091 µM | 
O=C(NCCN1CCCC2=CC3CC(CN4CCCCC34)C21)c1ccccc1F (centres unmarked) [Compound 2] | > 25 µM |  | 5.5 µM | 
O=C(Cc1ccc(S(=O)(=O)C(F)(F)F)cc1)NCCCCN1CCCC2=CC3CC(CN4CCCCC34)C21 (centres unmarked) [Compound 3] | 0.12 µM | > 20 µM | > 20 µM | IC50, PA/Puerto Rico/8/1934 Influenza A Virus (PR8) [2]: without anti-influenza virus activity
C1=C2CCCN(CCCCCNCc3ccccc3)C2C2CC1C1CCCCN1C2 (centres unmarked) [Compound 4] | 0.84 µM | > 20 µM | > 40 µM | 
C1=C2CCCN(CCCCNCc3ccccc3)C2C2CC1C1CCCCN1C2 (centres unmarked) [Compound 5] | 0.96 µM | > 20 µM | > 40 µM | IC50 [4, 10]: 0.86 ± 0.25 µM; IC50 [5, 10]: 0.83 ± 0.21 µM; Spike protein (virus) puncta in 293T-ACE2 cells under confocal microscope [3]: observed as puncta; Inhibitory activity against cathepsin B (cathepsin B): totally inactive; Inhibitory activity against cathepsin B (cathepsin B; listed as compound 5): did not inhibit; Inhibitory activity against cathepsin L (cathepsin L): totally inactive; Inhibitory activity against cathepsin L (cathepsin L; listed as compound 5): did not inhibit; IC50 ([6]; Murine leukemia virus, read-out: Antiviral activity (IC50) against MLV-env pseudotyped virus): > 20 µM; Antiviral activity (IC50) against MLV-env pseudotyped virus [6]: inactive; IC50 [7, 10]: 0.58 ± 0.15 µM; IC50, PA/Puerto Rico/8/1934 Influenza A Virus (PR8) [2]: ineffective
COc1ccc(C(=O)NCCCCN2CCCC3=CC4CC(CN5CCCCC45)C32)cc1 (centres unmarked) [Compound 6] | 11.4 µM | > 20 µM | > 20 µM | 
CC(C)(C)c1ccc(C(=O)NCCCCCCN2CCCC3=CC4CC(CN5CCCCC45)C32)cc1 (centres unmarked) [Compound 7] | 0.8 µM | > 20 µM | 0.83 µM | 
O=C(NCCCCCCCC(=O)N1CCCC2=CC3CC(CN4CCCCC34)C21)c1ccc(OC(F)(F)F)cc1 (centres unmarked) [Compound 8] | > 20 µM | > 20 µM | > 28.5 µM | IC50, HIV-1NL4-3-nanoluc-sec (HIV-1NL4-3-nanoluc-sec [1]): inactive; IC50, PA/Puerto Rico/8/1934 Influenza A Virus (PR8) [2]: inactive
Fc1ccc(CNCCCCN2CCCC3=CC4CC(CN5CCCCC45)C32)cc1 (centres unmarked) [Compound 9] |  | > 10 µM |  | IC50 [8]: 4.8 ± 1.4 µM; IC50, HIV-1NL4-3-nanoluc-sec (HIV-1NL4-3-nanoluc-sec [9]): Inac ^8
CC(C)C[C@H](NC(=O)[C@H]1O[C@@H]1C(=O)O)C(=O)NCCCCN=C(N)N [Compound E64, E64, reference compound] |  |  |  | Inhibition of enzyme activity (cathepsin B) (cathepsin B; at 0.1 µM): more than 95%
CCOC(=O)[C@H]1O[C@@H]1C(=O)N[C@@H](CC(C)C)C(=O)NCCC(C)C [Compound E64D, E64D, reference compound] |  |  |  | IC50 [4]: 0.34 ± 0.081 µM; IC50 [5]: 0.37 ± 0.066 µM; IC50 [7]: 0.45 ± 0.082 µM
